Reference: PubChem BioAssay AID248 (DTP/NCI, 2004)
Values joined by “and” are separate entries in the source; they are usually repeats but may differ in a detail not shown here. Equal values may be shown once. Toxic doses and inconclusive results are not listed. Square brackets hold non-standard residues; d marks the D form. Peptide text beside a SMILES is read from it. * marks the point of attachment. ξ: configuration not given here. Cbz = O=C(OCc1ccccc1)*; ξD = NC(CC(=O)O)C(=O)O

Tested on: L1210 leukemia ip in BDF1 mice, survival T/C
Assay: NCI In Vivo Anticancer Drug Screen. Data for tumor model L1210 Leukemia (intraperitoneal) in B6D2F1 (BDF1) mice
Settings: endpoint: mean survival time, higher = longer survival
How it was run: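 Antitumor effect is assessed in tumor-bearing animals. Survival in the compound arm is compared with a vehicle-dosed control arm and expressed as their quotient.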

Which results are given for CCOC(=O)C(NC(C)=O)C(N)=S (configuration not stated)?
T/C (dose: 100.0 mg/kg/injection, schedule: Q01DX001 (ip), vehicle: saline): 99 % of control; T/C (dose: 100.0 mg/kg/injection, schedule: Q01DX009 (ip), vehicle: saline): 108 % of control; T/C (dose: 100.0 mg/kg/injection, schedule: Q04DX003 (ip), vehicle: saline): 102 % of control; T/C (dose: 200.0 mg/kg/injection, schedule: Q01DX001 (ip), vehicle: saline): 93 % of control; T/C (dose: 200.0 mg/kg/injection, schedule: Q01DX009 (ip), vehicle: saline): 97 % of control; T/C (dose: 200.0 mg/kg/injection, schedule: Q04DX003 (ip), vehicle: saline): 96 % of control; T/C (dose: 400.0 mg/kg/injection, schedule: Q01DX001 (ip), vehicle: saline): 94 % of control; T/C (dose: 400.0 mg/kg/injection, schedule: Q01DX009 (ip), vehicle: saline): 105 % of control; T/C (dose: 400.0 mg/kg/injection, schedule: Q04DX003 (ip), vehicle: saline): 106 % of control

Which T/C (dose: 3.75 mg/kg/injection, schedule: Q01DX Z (ip), vehicle: methylcellulose (MC)) does the source give for O=C(Nc1ccc(C2=NCCN2)cc1)c1ccc(C(=O)Nc2ccc(C3=NCCN3)cc2)c2ccccc12 here?
Its T/C is 102 % of control.

What about the T/C (dose: 7.5 mg/kg/injection, schedule: Q01DX Z (ip), vehicle: methylcellulose (MC)) of the same molecule?
The T/C was 118 % of control.

And the T/C (dose: 15.0 mg/kg/injection, schedule: Q01DX Z (ip), vehicle: methylcellulose (MC))?
The T/C was 169 % of control.

What about the T/C (dose: 30.0 mg/kg/injection, schedule: Q01DX Z (ip), vehicle: methylcellulose (MC)) of the same molecule?
Its T/C is 166 % of control and 170 % of control.

And the T/C (dose: 30.0 mg/kg/injection, schedule: Q01DX Z (oral), vehicle: carboxymethylcellulose (CMC))?
The T/C was 102 % of control.

And the T/C (dose: 120.0 mg/kg/injection, schedule: Q01DX Z (oral), vehicle: carboxymethylcellulose (CMC))?
Its T/C is 94 % of control.

How did the T/C (dose: 100.0 mg/kg/injection, schedule: Q04DX002 (ip), vehicle: Klucel (hydroxypropylcellulose) (HPC)) turn out when COC1OC(CCl)C(OS(=O)(=O)c2ccc(C)cc2)C(OS(=O)(=O)c2ccc(C)cc2)C1OS(=O)(=O)c1ccc(C)cc1 (configuration not stated) was run?
Its T/C is 90 % of control.

What about the T/C (dose: 200.0 mg/kg/injection, schedule: Q04DX002 (ip), vehicle: Klucel (hydroxypropylcellulose) (HPC)) of the same molecule?
The T/C was 93 % of control.

And the T/C (dose: 400.0 mg/kg/injection, schedule: Q04DX002 (ip), vehicle: Klucel (hydroxypropylcellulose) (HPC))?
The T/C was 97 % of control.

What does the source list for O=NN(CCCl)C(=O)NC1CCSCC1?
T/C (dose: 0.5 mg/kg/injection, schedule: Q01DX001 (ip), vehicle: carboxymethylcellulose (CMC)): 104 % of control; T/C (dose: 1.0 mg/kg/injection, schedule: Q01DX001 (ip), vehicle: carboxymethylcellulose (CMC)): 104 % of control; T/C (dose: 4.0 mg/kg/injection, schedule: Q01DX001 (ip), vehicle: carboxymethylcellulose (CMC)): 179 % of control; T/C (dose: 5.0 mg/kg/injection, schedule: Q01DX001 (ip), vehicle: carboxymethylcellulose (CMC)): 226 % of control; T/C (dose: 6.0 mg/kg/injection, schedule: Q01DX001 (ip), vehicle: carboxymethylcellulose (CMC)): 203 % of control and 277 % of control; T/C (dose: 8.0 mg/kg/injection, schedule: Q01DX001 (ip), vehicle: carboxymethylcellulose (CMC)): 290 % of control and 319 % of control and 322 % of control; T/C (dose: 9.0 mg/kg/injection, schedule: Q01DX001 (ip), vehicle: carboxymethylcellulose (CMC)): 312 % of control; T/C (dose: 12.0 mg/kg/injection, schedule: Q01DX001 (ip), vehicle: carboxymethylcellulose (CMC)): 319 % of control and 322 % of control; T/C (dose: 14.0 mg/kg/injection, schedule: Q01DX001 (ip), vehicle: carboxymethylcellulose (CMC)): 312 % of control; T/C (dose: 16.0 mg/kg/injection, schedule: Q01DX001 (ip), vehicle: carboxymethylcellulose (CMC)): 234 % of control; T/C (dose: 18.0 mg/kg/injection, schedule: Q01DX001 (ip), vehicle: carboxymethylcellulose (CMC)): 158 % of control; T/C (dose: 21.0 mg/kg/injection, schedule: Q01DX001 (ip), vehicle: carboxymethylcellulose (CMC)): 122 % of control; T/C (dose: 24.0 mg/kg/injection, schedule: Q01DX001 (ip), vehicle: carboxymethylcellulose (CMC)): 90 % of control

For O=C(O)CC(NC(=O)CNC(=O)OCc1ccccc1)C(=O)O (stereo not drawn) (Cbz-Gly-[ξD]-OH), which T/C (dose: 50.0 mg/kg/injection, schedule: Q01DX009 (ip), vehicle: Klucel (hydroxypropylcellulose) (HPC)) is on record?
Its T/C is 93 % of control.

And the T/C (dose: 50.0 mg/kg/injection, schedule: Q04DX003 (ip), vehicle: Klucel (hydroxypropylcellulose) (HPC))?
Its T/C is 94 % of control.

What about the T/C (dose: 100.0 mg/kg/injection, schedule: Q01DX009 (ip), vehicle: Klucel (hydroxypropylcellulose) (HPC)) of the same molecule?
Its T/C is 93 % of control.

And the T/C (dose: 100.0 mg/kg/injection, schedule: Q04DX003 (ip), vehicle: Klucel (hydroxypropylcellulose) (HPC))?
Its T/C is 98 % of control.

And the T/C (dose: 200.0 mg/kg/injection, schedule: Q01DX009 (ip), vehicle: Klucel (hydroxypropylcellulose) (HPC))?
The T/C was 95 % of control.

And the T/C (dose: 200.0 mg/kg/injection, schedule: Q04DX003 (ip), vehicle: Klucel (hydroxypropylcellulose) (HPC))?
Its T/C is 94 % of control.
